Source: US7348342B2, “Heterocyclic compounds process for their preparation and pharmaceutical compositions containing them and their use in medicine” (Cadila Healthcare Limited, priority 2002, dated 2008)

Tested on: carrageenan foot pad edema
Assay: carrageenan foot pad edema test
Assay type: in vivo
Details: Wistar rats, dose 30 mg/kg by oral gavage 1 h before carrageenan; for % Inhibition of paw edema 1 hour: 1 hour after carrageenan injection; for % Inhibition of paw edema 3 hour: 3 hour after carrageenan injection
Excerpt: The compounds of the present invention have been tested for their biological activities by carrageenan foot pad edema test in male as well as female Wistar rats according to standard protocol described in literature (Winter et. al, Proc. Soc. Exp. Biol. Med., 111, 544, (1962); Otterness and Bliven, Laboratory Models for Testing NSAIDS, in Non-Steroidal Anti-inflammatory Drugs, (J. Lombardino, ed. 1985)). The protocol followed was as described below:
Wistar rats obtained from the Experimental Animal Facility of Zydus Research. Centre. Animals were housed in an environmentally controlled rooms with food and water available ad-libitum. All the experimental protocols were approved by the Institutional Animal Ethics Committee. Animals were divided into different groups, each group comprising of five-six animals. After an overnight fast, animals of the control group received vehicle only by oral gavage whereas animals of the other groups received different doses of the test substance(s). Each rat received same volume of the formulation i.e. 2 ml/kg on body weight basis. One hour after administration of the vehicle or test substance, all the animals received sub-planter injection of carrageenan (1% w/v in saline). Paw volume was measured at 0, 1, 3 and 5 hour after carrageenan injection. Anti-inflammatory activity, expressed as % Inhibition in paw swelling was calculated by measuring change in paw volume at different time intervals after carrageenan injection vs corresponding 0 hr values using the following formula.
[formula] Where • PVC=Average change in Paw volume of control animals • PVT=Average change in Paw volume of treated animals.

3-(4-Methoxyphenyl)-5-methyl-4-(4-methylsulfoximinylphenyl)-isoxazole [Compound 154]
% Inhibition of paw edema 1 hour: 46%
% Inhibition of paw edema 3 hour: 47%

3-(4-Methylphenyl)-4-(3-fluoro-4-methylsulfoximinylphenyl-5H-furan-2-one [Compound 112]
% Inhibition of paw edema 1 hour: 57%
% Inhibition of paw edema 3 hour: 40%

5-Chloro-3-(4-methylsulfoximinylphenyl)-[2,3′]bipyridinyl [Compound 97]
% Inhibition of paw edema 1 hour: 13%
% Inhibition of paw edema 3 hour: 36%

5-methyl-4-(4-methylsulfoximinylphenyl)-3-phenyl-isoxazole [Compound 153]
% Inhibition of paw edema 1 hour: 42%
% Inhibition of paw edema 3 hour: 43%

Cc1ccc(-c2cc(C(F)(F)F)nn2-c2ccc(S(N)(=O)=O)cc2)cc1 [Celecoxib, reference compound]
% Inhibition of paw edema 1 hour: 33%
% Inhibition of paw edema 3 hour: 26%
